Experimental findings from patent publication US20050239764A1, “Zinc pyrrolidonecarboxylate dihydrate and method of producing the same” (Ajinomoto Co., Inc., priority 2004, published 2005) are described below.

For the data set the following is noted: dihydrate; for transmittance (T %) of 10 g/dl aqueous solution: 4 g dissolved in water to 40 ml, kept at 25° C. for one day, stirred 1 min, 550 nm, optical path 10 mm, 25° C.; for liquid of 10 g/dl aqueous solution: evaluation grade of dissolution state from transmittance at 550 nm, 10 mm path.

Method: Apparatus: Spectrophotometer V-570 (JAS. CO)
Spectrophotometer (UV/VIS/NIR)
measure wavelength: 550 nm
band width (near infrared): 8.0 nm
repeating interval: 3 sec.
measure cell: quartz glass cell T-1-UV-10 manufactured by TOSOH Quartz Co.
(Optical path width: 10 mm, outside width; 12.5 mm, height; 45 mm)
measure temperature: 25° C.(R.T.)
1) Stabilization of value was performed, thereby starting setting until 2 hours before measuring.
2) Determination of measuring program: Fixed Wavelength program was selected, and then initialization of wavelength was performed.
3) Injecting ion exchange water (about 3 ml) into each of blank cell and sample cell, setting on photometer, correcting zero point, and then determining a blank (Completion of measuring preparation).
RIKEN KOGYO INC., Magmix Stirrer) at 3 of speed range, and then the solution (3 ml) was injected into measuring cell immediately.
5) The cell was equipped photometer immediately after confirming absence of bubble in the cell.
6) After setting, the cell was stood for 1 min, and then subjected to measurement.
7) The transmittance (% T) is the value measured with photometer.
Under the above conditions, the transmittance was obtained accurately although measuring sample comprised insoluble material, because insoluble material was dispersed uniformly in the whole cell.

As for “zinc pyrrolidonecarboxylate dihydrate [Ex. 6]”, the “transmittance (T %) of 10 g/dl aqueous solution” value (from here on “transmittance (T %)”) was found to be 86.1% and the “liquid of 10 g/dl aqueous solution” value is given as “Δ (Δ: 93-85%)”.

As for “zinc pyrrolidonecarboxylate dihydrate [Com. Ex. 3, reference compound]”, the “transmittance (T %)” value is recorded as 60.3%. Regarding “zinc pyrrolidonecarboxylate dihydrate [Com. Ex. 2, reference compound]”, the “transmittance (T %)” value is listed as 30.6%.

For the substance “zinc pyrrolidonecarboxylate dihydrate [Ex. 5]”, the “transmittance (T %)” value is given as 97.9% and the “liquid of 10 g/dl aqueous solution” value is on record as “⊚”. As for “zinc pyrrolidonecarboxylate dihydrate [Ex. 4]”, the “transmittance (T %)” value was 97.6% and the “liquid of 10 g/dl aqueous solution” value is listed as “⊚”. For “zinc pyrrolidonecarboxylate dihydrate [Ex. 2]” the same measures were 97.6% and “⊚”. As for “zinc pyrrolidonecarboxylate dihydrate [Com. Ex. 1, reference compound]”, the “transmittance (T %)” value is reported as 17.5%. As to “zinc pyrrolidonecarboxylate dihydrate [Ex. 1]”, the “transmittance (T %)” value came out at 96.6% and the “liquid of 10 g/dl aqueous solution” value is “◯”. “zinc pyrrolidonecarboxylate dihydrate [Com. Ex. 4, reference compound]”: the “transmittance (T %)” value was 19.9%.

With “zinc pyrrolidonecarboxylate dihydrate [Ex. 7]”, the “transmittance (T %)” value stood at 95.7%.

Take “zinc pyrrolidonecarboxylate dihydrate [Ex. 3]”: the “transmittance (T %)” value is on record as 96.9% and the “liquid of 10 g/dl aqueous solution” value was “◯”.
